# According to the supplement of paper PMC10307832:
# Tests used:
# Test in all cases: relative viability (nuclei count vs DMSO), 5 days (fraction); higher = more cells survive
# Tanzisertib + OSI-027 = compound: O[C@H]1CC[C@H](Nc2ncc3nc(Nc4c(F)cc(F)cc4F)n([C@H]4CCOC4)c3n2)CC1 [Tanzisertib] + COc1cccc2cc(-c3nc([C@H]4CC[C@H](C(=O)O)CC4)n4ncnc(N)c34)[nH]c12 [OSI-027] (partner 0.5 µM)
# Method in brief: (§1)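 Lung cancer cell lines in 1536-well plates got either a single drug or a fixed anchor-drug dose together with five library-drug doses (not always all listed) in √10 steps, by pin tool, on the day after seeding. Nuclei were counted after 5 days, and relative viability is the treated-to-vehicle ratio of nuclei counts. Values are medians of duplicate plates.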
# [1] = compound: C1CNCCC1C2=CC(=NN2)C3=CC=NC=C3 + COc1cccc2cc(-c3nc([C@H]4CC[C@H](C(=O)O)CC4)n4ncnc(N)c34)[nH]c12 [OSI-027] (partner 0.5 µM)
# Method in brief: as §1
# [2] = compound: C[C@@H](N)c1ccc(C(=O)Nc2ccnc3[nH]ccc23)cc1 + NC(=O)Nc1cc(-c2cccc(F)c2)sc1C(=O)N[C@H]1CCCNC1 [AZD7762] (partner 0.2 µM)
# Method in brief: as §1
# Tanzisertib + Phenformin = compound: O[C@H]1CC[C@H](Nc2ncc3nc(Nc4c(F)cc(F)cc4F)n([C@H]4CCOC4)c3n2)CC1 [Tanzisertib] + N=C(N)NC(=N)NCCc1ccccc1 [Phenformin] (partner 250 µM)
# Method in brief: as §1
Cell Line,relative viability (Tanzisertib + OSI-027; first compound 0.08 µM),relative viability (Tanzisertib + OSI-027; first compound 0.253 µM),relative viability (Tanzisertib + OSI-027; first compound 0.8 µM),relative viability (Tanzisertib + OSI-027; first compound 2.53 µM),relative viability (Tanzisertib + OSI-027; first compound 8 µM),relative viability ([1]; first compound 0.08 µM),relative viability ([1]; first compound 0.8 µM),relative viability ([1]; first compound 2.53 µM),relative viability ([1]; first compound 8 µM),relative viability ([2]; first compound 0.04 µM),relative viability ([2]; first compound 0.1265 µM),relative viability ([2]; first compound 0.4 µM),relative viability ([2]; first compound 1.265 µM),relative viability ([2]; first compound 4 µM),relative viability (Tanzisertib + Phenformin; first compound 0.08 µM),relative viability (Tanzisertib + Phenformin; first compound 0.253 µM),relative viability (Tanzisertib + Phenformin; first compound 0.8 µM),relative viability (Tanzisertib + Phenformin; first compound 2.53 µM),relative viability (Tanzisertib + Phenformin; first compound 8 µM)
NCI-H1648,0.275,0.245,0.239,0.319,0.223,0.242,0.271,0.292,0.245,0.951,1.01,0.924,1.61,1.35,,,,,
NCI-H1623,0.495,0.448,0.453,0.437,0.432,0.451,0.504,0.488,0.42,,,,,,0.587,0.574,0.639,0.572,0.551
NCI-H3122,1.26,0.869,0.939,0.955,0.946,0.856,1.02,1.05,0.981,1.13,0.982,1.06,1.06,0.955,0.398,0.423,0.378,0.426,0.314
NCI-H2347,0.447,,0.46,0.42,0.407,0.494,0.291,0.442,0.487,0.825,0.603,0.973,0.878,1.01,0.445,,0.434,0.306,0.376
HCC-44,0.665,0.557,0.546,0.561,0.353,0.47,0.71,0.627,0.787,1.07,1.01,1.09,1.26,1.09,0.171,0.297,0.269,0.306,0.0849
HCC-78,0.344,0.376,0.396,0.382,0.316,0.344,0.359,0.354,0.383,0.798,0.624,0.788,0.856,0.477,0.739,0.848,0.782,0.597,0.512
COR-L23,0.892,0.757,0.704,0.842,0.732,0.691,1.01,0.761,0.73,,,,,,0.479,0.489,0.432,0.483,0.475
NCI-H1993,0.604,0.578,0.485,0.498,0.59,0.581,0.533,0.529,0.578,0.867,0.817,,1.04,1.26,0.484,0.508,0.49,0.491,0.537
NCI-H2405,0.7,0.596,0.682,0.703,0.532,0.72,0.627,0.731,0.674,,0.702,0.438,0.253,0.179,0.454,0.393,0.426,0.385,0.345
NCI-H2023,0.483,0.418,0.394,0.347,0.35,0.347,0.48,0.457,0.503,,,,,,0.427,0.37,0.407,0.411,0.404
NCI-H1563,0.789,0.731,0.722,0.731,0.704,0.74,0.771,0.749,0.769,,,,,,0.662,0.688,0.654,0.681,0.624
SK-MES-1,0.677,0.588,0.597,0.591,0.501,0.51,0.565,0.624,0.593,,,,,,0.683,0.637,0.663,0.645,0.632
NCI-H1650,0.644,0.876,0.735,0.539,0.52,0.552,0.744,0.751,0.625,,,,,,0.317,0.425,0.407,0.307,0.314
NCI-H1703,,,,,,,,,,,0.125,0.131,,0.105,,,,,
NCI-H661,0.771,0.741,0.615,0.704,0.655,0.707,0.835,0.739,0.634,,,,,,0.32,0.256,0.24,0.285,0.284
NCI-H2228,0.822,0.633,0.616,0.499,0.379,0.61,0.653,0.649,0.689,,,,,,0.399,0.279,0.397,0.275,0.227
NCI-H520,0.328,0.246,0.238,0.262,0.304,0.247,0.2,0.236,0.311,,,,,,0.734,0.662,0.599,0.609,0.663
